The results in this text go back to publication PMC9400670, “Establishing the selective phospholipid membrane coordination, permeation and lysis properties for a series of ‘druggable’ supramolecular self-associating antimicrobial amphiphiles” (Chemical Science, 2022).

One test has as its system E. coli DH10B. Put plainly: MIC50 determination and initial screening from OD600 growth curves, E. coli DH10B. To be noted: Escherichia coli, 15 h; E. coli DH10B; n = 3; 0.5 McFarland standard; after 900 min; number in bracket = efficacy rank. The format is cell-based, Escherichia coli. From the text: The antimicrobial activity of SSAs 1–14 was established against both a model Gram-positive, clinically relevant methicillin resistant Staphylococcus aureus (MRSA), and a model Gram-negative, E. coli bacteria, Table 1. Here MIC50 values are given in mM to enable the derivation of molecular structure: antimicrobial efficacy: physical property relationships. […]
Data were acquired in endpoint mode. […]
Section 3: Microbial Methods
These methods were taken directly from UK Health and Security Office (UKHSA) standard operating […]
Preparation of Luria Broth media (LB): Yeast extract (5 g), tryptone (10 g) and sodium chloride (10 g) were dissolved in dH₂O (1 L) then divided into bottles and autoclaved.
Preparation of Luria Broth (LB) agar plates: Agar (6 g) was added to LB (400 mL) and autoclaved. Once cool, the LB agar was poured into sterile petri dishes under sterile conditions and allowed to set. LB plates were stored at 4 °C until use.
Preparation of bacterial plates: Sterile LB agar plates were streaked using Escherichia coli DH10B or USA300 Methicillin-Resistant Staphylococcus aureus then incubated at 37 °C overnight.
Preparation of Inoculum: An initial culture was made up by inoculating LB media (5 mL) with a single colony of bacteria under sterile conditions and incubated at 37 °C with shaking overnight. The following day, overnight bacterial cultures were subcultured into fresh LB medium to a starting OD600 […]
Preparation of 96 well microplate for screening: 20 mM solutions of each compound to be tested were made up using 5 % ethanol. The 1:100 cell suspension (150 µL) was pipetted into the wells and SSA compound solutions (30 µL) were added into each well. The final screening concentration for each compound was 3.3 mM in the well. These were incubated for 20 hours in a plate reader, with optical density readings being taken at 600 nm every 15 minutes. Optical density readings were plotted against time to produce growth curves. […]
individual wells under sterile conditions. Compounds (30 µL) were added to the wells to equal a total volume of 180 µL in the wells. Six repeats of each concentration for each compound were created each plate. The plates were sealed using parafilm, then incubated at 37°C in a microplate reader for 18-25 hours. Optical density readings were taken at 600 nm every 15 min. Data was used to generate […]
Calculation of MIC50: Growth curves were plotted using OD600 optical density readings in Microsoft ® Excel ® 2013. OD600 optical density readings 900 minutes from the start of each of these growth cultures for each concentration of compound were plotted in Origin ® 2015. The resultant curve was normalized and fitted using the Boltzmann fit to define the MIC50 values for each compound.
Consider `O=C(NCS(=O)(=O)O)Nc1ccc(-c2nc3ccccc3s2)cc1` [SSA 8], for which the MIC50 was determined as 3660 µM.

Turning to `Cc1ccc2nc(-c3ccc(NC(=O)NCCC(=O)O)cc3)sc2c1` [SSA 9], the MIC50 was determined as 2160 µM.

For the compound `Cc1ccc2nc(-c3ccc(NC(=O)NCCCS(=O)(=O)O)cc3)sc2c1` [SSA 10], the MIC50 came to 1160 µM.

The test is the same for the next values; noted with them: Escherichia coli, 15 h; Table S3, conversion of the mM values of Table 1; E. coli DH10B; after 900 mins.
Consider `O=C(NCS(=O)(=O)O)Nc1ccc(C(F)(F)F)cc1` [SSA 1], for which the MIC50 turned out to be 2080 µg/mL.

In turn, `O=C(NCCCS(=O)(=O)O)Nc1ccc(C(F)(F)F)cc1` [SSA 2] returned an MIC50 of 840 µg/mL.

For `O=C(O)CNC(=O)Nc1ccc(C(F)(F)F)cc1` [SSA 4], the MIC50 is 630 µg/mL.

In the case of `O=C(NCS(=O)(=O)O)Nc1ccccc1-c1nc2ccccc2s1` [SSA 5], the MIC50 came out at 2160 µg/mL.

As to `Cc1ccc2nc(-c3ccc(NC(=O)NCS(=O)(=O)O)cc3)sc2c1` [SSA 6], the MIC50 amounted to 3110 µg/mL.

For the compound `O=C(NCS(=O)(=O)O)Nc1ccc(-c2nc3ccccc3s2)cc1` [SSA 8], the MIC50 was determined as 2210 µg/mL.

`Cc1ccc2nc(-c3ccc(NC(=O)NCCC(=O)O)cc3)sc2c1` [SSA 9]: the MIC50 turned out to be 1370 µg/mL.

Compound `Cc1ccc2nc(-c3ccc(NC(=O)NCCCS(=O)(=O)O)cc3)sc2c1` [SSA 10] returned an MIC50 of 750 µg/mL.

The same test, now with this note: Escherichia coli, DH10B, 15 h; 3.3 mM; after 900 min; read-out: initial antimicrobial screening, inhibition of growth, E. coli.
For `Cc1ccc2nc(NC(=O)NCS(=O)(=O)O)sc2c1` [SSA 7], the inhibition at 3300 µM was under 10%.

Consider `Cc1ccc2nc(-c3ccc(NC(=S)NCS(=O)(=O)O)cc3)sc2c1` [SSA 12], for which the inhibition at 3300 µM was under 10%.

The same test, now with this note: Table S3; screening at 3.3 mM.
Take `Cc1ccc2nc(NC(=O)NCS(=O)(=O)O)sc2c1` [SSA 7]: the “initial antimicrobial screening outcome, E. coli” value is on record as “Fail”.

For another test, the system named is PE-PG mix lipid vesicles. Put plainly: Synthetic phospholipid vesicle membrane binding assay (fluorescence polarisation), PE-PG mix vesicles. The following applies: lipid vesicles added to SSA (0.15 mM); n = 3; error = standard error; SSA alone set to 100 mP. On the procedure:
(§1) For intrinsically fluorescent SSAs 5, 6 and 8–12, FP titration experiments enabled the observation of SSA: phospholipid vesicle interactions. Here, an increase in FP value indicates an increase in the apparent size of the SSA as it interacts with the phospholipid vesicle. […]
(§2) Fluorescence polarisation: Lipid films were resuspended in Buffer (150 mM KCl, 10 mM HEPES, pH 7.4, 2 mM EGTA) and subjected to 9 freeze-thaw cycles in liquid nitrogen and extruded 20 times through a 200 nm polycarbonate membrane. Black bottom 96-well plates were prepared by serially diluting desired vesicle solution across the plate, the appropriate SSA solution (100 µL, 0.15 mM) was added to each well to give a total well volume of 200 µL. Fluorescent SSA solutions were set to a FP value of 100 mP. Data were acquired in endpoint mode. […]
A general note: In fluorescence polarisation assays a small probe gives low polarisation when free and higher when bound to something large.
Consider `O=C(NCS(=O)(=O)O)Nc1ccccc1-c1nc2ccccc2s1` [SSA 5], for which the “increase in FP, PE-PG mix” value is on record as 36 ± 3 mP.

With `Cc1ccc2nc(-c3ccc(NC(=O)NCS(=O)(=O)O)cc3)sc2c1` [SSA 6], the “increase in FP, PE-PG mix” value was 9 ± 1 mP.

With `O=C(NCS(=O)(=O)O)Nc1ccc(-c2nc3ccccc3s2)cc1` [SSA 8], the “increase in FP, PE-PG mix” value is 32 ± 1 mP.

`Cc1ccc2nc(-c3ccc(NC(=O)NCCC(=O)O)cc3)sc2c1` [SSA 9]: the “increase in FP, PE-PG mix” value worked out at 35 ± 2 mP.

`Cc1ccc2nc(-c3ccc(NC(=O)NCCCS(=O)(=O)O)cc3)sc2c1` [SSA 10]: the “increase in FP, PE-PG mix” value was found to be 21 ± 2 mP.

Take `Cc1ccc2nc(-c3ccc(NC(=O)NCC(=O)O)cc3)sc2c1` [SSA 11]: the “increase in FP, PE-PG mix” value stood at 45 ± 2 mP.

As for `Cc1ccc2nc(-c3ccc(NC(=S)NCS(=O)(=O)O)cc3)sc2c1` [SSA 12], the “increase in FP, PE-PG mix” value came to 107 ± 3 mP.

For the next test, the system named is PC lipid vesicles. Put plainly: Synthetic phospholipid vesicle membrane binding assay (fluorescence polarisation), PC vesicles. To be noted: lipid vesicles added to SSA (0.15 mM); n = 3; error = standard error; SSA alone set to 100 mP. On the procedure:
as §1, §2
With `O=C(NCS(=O)(=O)O)Nc1ccccc1-c1nc2ccccc2s1` [SSA 5], the “increase in FP, PC” value was determined as 87 ± 4 mP.

Turning to `Cc1ccc2nc(-c3ccc(NC(=O)NCS(=O)(=O)O)cc3)sc2c1` [SSA 6], the “increase in FP, PC” value is given as 47 ± 8 mP.

On to `O=C(NCS(=O)(=O)O)Nc1ccc(-c2nc3ccccc3s2)cc1` [SSA 8], for which the “increase in FP, PC” value is 35 ± 4 mP.

For `Cc1ccc2nc(-c3ccc(NC(=O)NCCC(=O)O)cc3)sc2c1` [SSA 9], the “increase in FP, PC” value is recorded as 35 ± 10 mP.

With `Cc1ccc2nc(-c3ccc(NC(=O)NCCCS(=O)(=O)O)cc3)sc2c1` [SSA 10], the “increase in FP, PC” value turned out to be 26 ± 1 mP.

For `Cc1ccc2nc(-c3ccc(NC(=O)NCC(=O)O)cc3)sc2c1` [SSA 11], the “increase in FP, PC” value is recorded as 68 ± 1 mP.

With `Cc1ccc2nc(-c3ccc(NC(=S)NCS(=O)(=O)O)cc3)sc2c1` [SSA 12], the “increase in FP, PC” value was determined as 163 ± 6 mP.

Usually MIC50 stands for an inhibitory concentration at the 50% level, which refers to growth in some studies and to a panel of isolates in others. For orientation: inhibition means the share of the control response that was lost under treatment.
